Measurements taken from patent publication US10280166B2, “2-(1H-indazol-3-yl)-3H-imidazo[4,5-B]pyridine and therapeutic uses thereof” (Samumed, LLC, priority 2014, dated 2019).
pEC50, pIC50: −log10 of the molar value.

What was measured:
[1] = system: Wnt activity (SW480 colon carcinoma cells stably expressing the Sp5-Luc reporter gene); assay: Sp5-Luc reporter gene screening assay for Wnt activity in SW480 cells; type: cell-based; conditions: Homo sapiens, 42 h incubation, luminescence
Summary of the method: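 SW480 cells stably carrying an Sp5 promoter (eight TCF/LEF sites)-luciferase reporter were plated overnight in 10% FCS medium. BrightGlo luminescence was normalised to DMSO wells, and IC50 was obtained by four-parameter fit.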

[2] = system: primary human fibroblasts derived from IPF patients (LL29 cells); assay: Inhibition of fibrosis (αSMA) in TGF-β1 treated primary human fibroblasts from IPF patients; type: cell-based; conditions: Fibroblast, 96 h, TGF-β1 20 ng/mL, 4 days, % αSMA positive cells
Summary of the method: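 IPF patient-derived LL29 lung fibroblasts in 1% FBS were treated with compound (11 points, 10 μM to 1.87 nM, 0.1% DMSO) and then 20 ng/mL TGF-β1 for 4 days at 37° C. Fraction of SYTOX-negative cells positive for αSMA was quantified by immunofluorescence imaging and normalized to TGF-β1 controls. EC50 came from non-linear regression over triplicate wells.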

How did the pIC50 [1] turn out when `FC1(F)CCN(Cc2cncc(-c3ccc4[nH]nc(-c5nc6c(-c7cccs7)ccnc6[nH]5)c4c3)c2)C1` [Compound 337, 2-(5-(5-((3,3-Difluoropyrrolidin-1-yl)methyl)pyridin-3-yl)-1H-indazol-3-yl)-7-(thiophen-2-yl)-3H-imidazo[4,5-b]pyridine] was run?
Its pIC50 is 7.82.

What about the pEC50 [2] of the same compound?
The pEC50 was 8.88.

With `Fc1ccc(-c2ccnc3[nH]c(-c4n[nH]c5ccc(-c6cncc(CN7CCCC7)c6)cc45)nc23)s1` [Compound 352, 7-(5-Fluorothiophen-2-yl)-2-(5-(5-(pyrrolidin-1-ylmethyl)pyridin-3-yl)-1H-indazol-3-yl)-3H-imidazo[4,5-b]pyridine] as the compound, how does the pIC50 [1] read?
Its pIC50 is 7.88.

What about the pEC50 [2] of the same compound?
The pEC50 was 9.90.

What does the source list for `Cc1ccc(-c2ccnc3[nH]c(-c4n[nH]c5ccc(-c6cncc(N)c6)cc45)nc23)s1` [Compound 367, 5-(3-(7-(5-Methylthiophen-2-yl)-3H-imidazo[4,5-b]pyridin-2-yl)-1H-indazol-5-yl)pyridin-3-amine]?
pIC50 [1]: 8.37; pEC50 [2]: 9.50

What does the source list for `Cc1ccc(-c2ccnc3[nH]c(-c4n[nH]c5ccc(-c6cncc(NC(=O)C(C)(C)C)c6)cc45)nc23)s1` [Compound 372, N-(5-(3-(7-(5-Methylthiophen-2-yl)-3H-imidazo[4,5-b]pyridin-2-yl)-1H-indazol-5-yl)pyridin-3-yl)pivalamide]?
pIC50 [1]: 9.22; pEC50 [2]: 11.05

What does the source list for `Cc1ccc(-c2ccnc3[nH]c(-c4n[nH]c5ccc(-c6cncc(CN7CCCCC7)c6)cc45)nc23)s1` [Compound 379, 7-(5-Methylthiophen-2-yl)-2-(5-(5-(piperidin-1-ylmethyl)pyridin-3-yl)-1H-indazol-3-yl)-3H-imidazo[4,5-b]pyridine]?
pIC50 [1]: 7.12; pEC50 [2]: 9.39

With `Cc1ccc(-c2ccnc3[nH]c(-c4n[nH]c5ccc(-c6cncc(NC(=O)C7CCCC7)c6)cc45)nc23)s1` [Compound 385, N-(5-(3-(7-(5-Methylthiophen-2-yl)-3H-imidazo[4,5-b]pyridin-2-yl)-1H-indazol-5-yl)pyridin-3-yl)cyclopentanecarboxamide] as the compound, how does the pIC50 [1] read?
Its pIC50 is 7.72.

What about the pEC50 [2] of the same compound?
Its pEC50 is 10.08.

`Cc1ccncc1-c1ccc2[nH]nc(-c3nc4c(-c5cc(F)cc(CNS(C)(=O)=O)c5)ccnc4[nH]3)c2c1` [Compound 421, N-(3-fluoro-5-(2-(5-(4-Methylpyridin-3-yl)-1H-indazol-3-yl)-3H-imidazo[4,5-b]pyridin-7-yl)benzyl)methanesulfonamide] was tested. Which pIC50 [1] did it give?
Its pIC50 is 8.21.

And the pEC50 [2]?
The pEC50 was 10.35.

Which results are given for `CS(=O)(=O)NCc1cc(F)cc(-c2ccnc3[nH]c(-c4n[nH]c5ccc(-c6cncc(CNCc7ccccc7)c6)cc45)nc23)c1` [Compound 439, N-(3-(2-(5-(5-((Benzylamino)methyl)pyridin-3-yl)-1H-indazol-3-yl)-3H-imidazo[4,5-b]pyridin-7-yl)-5-fluorobenzyl)methanesulfonamide]?
pIC50 [1]: 6.45; pEC50 [2]: 11.05

`CCNCc1cncc(-c2ccc3[nH]nc(-c4nc5c(-c6cc(F)cc(NCCN(C)C)c6)ccnc5[nH]4)c3c2)c1` [Compound 448, N^1-(3-(2-(5-(5-((Ethylamino)methyl)pyridin-3-yl)-1H-indazol-3-yl)-3H-imidazo[4,5-b]pyridin-7-yl)-5-fluorophenyl)-N^2,N^2-dimethylethane-1,2-diamine] was tested. Which pIC50 [1] did it give?
The pIC50 was 6.69.

And the pEC50 [2]?
Its pEC50 is 9.15.

How did the pIC50 [1] turn out when `CC(C)Nc1cncc(-c2ccc3[nH]nc(-c4nc5c(-c6cc(F)cc(NCCN(C)C)c6)ccnc5[nH]4)c3c2)c1` [Compound 454, N^1-(3-Fluoro-5-(2-(5-(5-(isopropylamino)pyridin-3-yl)-1H-indazol-3-yl)-3H-imidazo[4,5-b]pyridin-7-yl)phenyl)-N^2,N^2-dimethylethane-1,2-diamine] was run?
Its pIC50 is 7.29.

And the pEC50 [2]?
Its pEC50 is 10.72.

With `CN(C)CCNc1cc(F)cc(-c2ccnc3[nH]c(-c4n[nH]c5ccc(-c6cncc(CNCC7CCCC7)c6)cc45)nc23)c1` [Compound 466, N^1-(3-(2-(5-(5-(((Cyclopentylmethyl)amino)methyl)pyridin-3-yl)-1H-indazol-3-yl)-3H-imidazo[4,5-b]pyridin-7-yl)-5-fluorophenyl)-N^2,N^2-dimethylethane-1,2-diamine] as the compound, how does the pIC50 [1] read?
The pIC50 was 6.35.

What about the pEC50 [2] of the same compound?
The pEC50 was 8.95.

How did the pIC50 [1] turn out when `Fc1cccc(-c2ccnc3[nH]c(-c4n[nH]c5ccc(C6CCNCC6)cc45)nc23)c1` [Compound 1873, 7-(3-Fluorophenyl)-2-(5-(piperidin-4-yl)-1H-indazol-3-yl)-3H-imidazo[4,5-b]pyridine] was run?
Its pIC50 is 5.49.

What about the pEC50 [2] of the same compound?
Its pEC50 is 10.43.

With `Fc1cccc(-c2ccnc3[nH]c(-c4n[nH]c5ccc(C6=CCNCC6)cc45)nc23)c1` [Compound 1874, 7-(3-Fluorophenyl)-2-(5-(1,2,3,6-tetrahydropyridin-4-yl)-1H-indazol-3-yl)-3H-imidazo[4,5-b]pyridine] as the compound, how does the pIC50 [1] read?
Its pIC50 is under 6.00.

What about the pEC50 [2] of the same compound?
Its pEC50 is 9.50.

With `Cn1cc(-c2ccc3[nH]nc(-c4nc5c(-c6cccc(F)c6)ccnc5[nH]4)c3c2)cn1` [Compound 1876, 7-(3-Fluorophenyl)-2-(5-(1-methyl-1H-pyrazol-4-yl)-1H-indazol-3-yl)-3H-imidazo[4,5-b]pyridine] as the compound, how does the pIC50 [1] read?
The pIC50 was 7.21.

What about the pEC50 [2] of the same compound?
Its pEC50 is 8.00.

`Cc1ncc(-c2ccc3[nH]nc(-c4nc5c(-c6cccc(F)c6)ccnc5[nH]4)c3c2)n1C` [Compound 1877, 2-(5-(1,2-Dimethyl-1H-imidazol-5-yl)-1H-indazol-3-yl)-7-(3-fluorophenyl)-3H-imidazo[4,5-b]pyridine] was tested. Which pIC50 [1] did it give?
Its pIC50 is under 5.00.

And the pEC50 [2]?
The pEC50 was 8.00.

How did the pIC50 [1] turn out when `NC1CN(c2cncc(-c3ccc4[nH]nc(-c5nc6c(-c7cccc(F)c7)ccnc6[nH]5)c4c3)n2)C1` [Compound 1878, 1-(6-(3-(7-(3-Fluorophenyl)-3H-imidazo[4,5-b]pyridin-2-yl)-1H-indazol-5-yl)pyrazin-2-yl)azetidin-3-amine] was run?
The pIC50 was 6.67.

What about the pEC50 [2] of the same compound?
Its pEC50 is 8.00.

What does the source list for `Fc1cccc(-c2ccnc3[nH]c(-c4n[nH]c5ccc(-c6cncc(OC7CCCCC7)c6)cc45)nc23)c1` [Compound 1879, 2-(5-(5-(Cyclohexyloxy)pyridin-3-yl)-1H-indazol-3-yl)-7-(3-fluorophenyl)-3H-imidazo[4,5-b]pyridine]?
pIC50 [1]: < 5.00; pEC50 [2]: 8.00

How did the pIC50 [1] turn out when `Fc1cccc(-c2ccnc3[nH]c(-c4n[nH]c5ccc(-c6cncc(OC7CCNCC7)c6)cc45)nc23)c1` [Compound 1880, 7-(3-Fluorophenyl)-2-(5-(5-(piperidin-4-yloxy)pyridin-3-yl)-1H-indazol-3-yl)-3H-imidazo[4,5-b]pyridine] was run?
Its pIC50 is 5.92.

What about the pEC50 [2] of the same compound?
Its pEC50 is 9.38.

What does the source list for `O=C(CC1CCNCC1)Nc1cncc(-c2ccc3[nH]nc(-c4nc5c(-c6cccc(F)c6)ccnc5[nH]4)c3c2)c1` [Compound 1881, N-(5-(3-(7-(3-Fluorophenyl)-3H-imidazo[4,5-b]pyridin-2-yl)-1H-indazol-5-yl)pyridin-3-yl)-2-(piperidin-4-yl)acetamide]?
pIC50 [1]: 7.19; pEC50 [2]: 10.15

With `COc1cncc(-c2ccc3[nH]nc(-c4nc5c(-c6cccc(F)c6)ccnc5[nH]4)c3c2)c1` [Compound 1884, 7-(3-Fluorophenyl)-2-(5-(5-methoxypyridin-3-yl)-1H-indazol-3-yl)-3H-imidazo[4,5-b]pyridine] as the compound, how does the pIC50 [1] read?
The pIC50 was under 5.00.

What about the pEC50 [2] of the same compound?
The pEC50 was 8.00.

How did the pIC50 [1] turn out when `O=C(CC1CCCCC1)Nc1cncc(-c2ccc3[nH]nc(-c4nc5c(-c6cccc(F)c6)ccnc5[nH]4)c3c2)c1` [Compound 1887, 2-Cyclohexyl-N-(5-(3-(7-(3-fluorophenyl)-3H-imidazo[4,5-b]pyridin-2-yl)-1H-indazol-5-yl)pyridin-3-yl)acetamide] was run?
The pIC50 was under 5.00.

What about the pEC50 [2] of the same compound?
Its pEC50 is 8.00.

Which results are given for `Fc1cccc(-c2ccnc3[nH]c(-c4n[nH]c5ccc(-c6ccncc6)cc45)nc23)c1` [Compound 1888, 7-(3-Fluorophenyl)-2-(5-(pyridin-4-yl)-1H-indazol-3-yl)-3H-imidazo[4,5-b]pyridine]?
pIC50 [1]: < 5.00; pEC50 [2]: 8.00

What does the source list for `Fc1cccc(-c2ccnc3[nH]c(-c4n[nH]c5ccc(-c6ccccn6)cc45)nc23)c1` [Compound 1889, 7-(3-Fluorophenyl)-2-(5-(pyridin-2-yl)-1H-indazol-3-yl)-3H-imidazo[4,5-b]pyridine]?
pIC50 [1]: < 6.00; pEC50 [2]: 10.74

How did the pIC50 [1] turn out when `Fc1cccc(-c2ccnc3[nH]c(-c4n[nH]c5ccc(-c6cnccn6)cc45)nc23)c1` [Compound 1890, 7-(3-Fluorophenyl)-2-(5-(pyrazin-2-yl)-1H-indazol-3-yl)-3H-imidazo[4,5-b]pyridine] was run?
The pIC50 was 7.41.

What about the pEC50 [2] of the same compound?
The pEC50 was 9.78.

How did the pIC50 [1] turn out when `CN(C)CC(=O)Nc1cncc(-c2ccc3[nH]nc(-c4nc5c(-c6cccc(F)c6)ccnc5[nH]4)c3c2)c1` [Compound 2373, 2-(Dimethylamino)-N-(5-(3-(7-(3-fluorophenyl)-3H-imidazo[4,5-b]pyridin-2-yl)-1H-indazol-5-yl)pyridin-3-yl)acetamide] was run?
Its pIC50 is 7.04.

And the pEC50 [2]?
The pEC50 was 9.63.
